In US20100323975A1, “THERAPEUTIC AGENT FOR CEREBRAL ISCHEMIC INJURY” (OTSUKA PHARMACEUTICAL FACTORY, INC., priority 2007, published 2010):
“Also recorded” adds a separate entry of the source. One block for each compound: values may come before it. Peptide text beside a SMILES is read from it.

Columns and labels:
[1] = tested on: model of middle cerebral artery occlusion and subsequent reperfusion (cerebral ischemic injury); experiment: Infarction rate in model of middle cerebral artery occlusion and subsequent reperfusion (Test Example 1); type: in vivo, Wistar male rats; settings: for Infarction rate (mean value): 90 min occlusion, day after administration, control 49%
Excerpt: Approximately 9-week-old Wistar male rats were used. The method of Koizumi et al. (Nou-socchu (Cerebral Apoplexy), Vol. 8, pp. 1-8, 1986) was applied to the rats under halothane anesthesia, so as to produce models of middle cerebral artery occlusion and subsequent reperfusion. Specifically, each rat was fixed under natural aspiration conditions under anesthesia with gas (initial anesthesia: performed in room air containing 3% halothane; continuous anesthesia: performed in room air containing 1% halothane), and the neck of the rat was then subjected to median incision. Subsequently, the left common carotid and external carotid artery was exfoliated from surrounding connective tissues, and it was then ligated with a ligature. After that, the internal carotid artery was exfoliated from surrounding connective tissues, and it was then ligated with a ligature. Further, using scissors, a hole was made on a site close to the branch point between the left external carotid artery and the internal carotid artery, and a silicon-coated portion of a nylon plug was then inserted into the internal carotid artery at a depth of 15 to 16 mm. Thereby, the tip of the inserted nylon plug exceeded the middle cerebral artery portion and reached the anterior cerebral artery, so that the inlet of the middle cerebral artery was occluded with the silicon-coated portion of the plug. […]
On the day after the administration of the agent, a test animal was anesthetized with ether, and the brain was then excised. […] A slice of brain section was placed, with a surface to be measured down, into each well of a 12-well plate, which had been filled with a 2% TTC solution prepared by dissolving 2,3,5-triphenyltetrazolium chloride (TTC) in a phosphate buffered saline. […] Thus, the area of an infarct on the measurement surface of each brain section (the site in which brain tissue was considered to be necrosed) was measured, and the obtained value was then multiplied by the thickness of the brain section, so as to obtain the volume of an infarct in each brain section. […]

[2] = Time course of L-histidine concentration in blood after administration of different dipeptides (Test Example 4); type: in vivo, Wister male rats
Experimental: 7- to 8-week-old Wister male rats were divided into the following 3 administration groups.
(§1) 1.00 g of L-alanyl-L-histidine (manufactured by Bachem) was dissolved in water for injection purpose to prepare 13.70 mL (total amount) of solution. This solution was subjected to sterilization filtration, and it was then poured into syringes (10 mL each per syringe), so as to produce a therapeutic agent for cerebral ischemic injury having a dosage form as an injection. The concentration of L-alanyl-L-histidine in this therapeutic agent for cerebral ischemic injury was 0.32 mol/L (L-histidine concentration: 5% (W/V)).
as §1, with “L-histidyl-L-glycine” for “L-alanyl-L-histidine”, “14.60” for “13.70”
as §1, with “L-histidyl-L-glutamic acid” for “L-alanyl-L-histidine”, “10.90” for “13.70”

Wistar male rats = experiment: Identification of side effects after intravenous administration (Test Example 2); settings: for Cessation of breathing, number of cases: 4 rats per group
Experimental: (§2) 7- to 9-week-old Wistar male rats were divided into the following 8 administration groups. The number of rats in each group was set at 4. […]
L-histidine hydrochloride was dissolved in water for injection purpose, and the obtained solution was then adjusted to pH 6.0 with a sodium hydroxide aqueous solution. The obtained injection solution (L-histidine concentration: 10% (W/V)) was administered into the caudal vein of each rat at a rate of 60 mL/kg/hr for 10 minutes.
(§3) L-histidine was added to water for injection purpose, and acetic acid was further added thereto, so as to dissolve L-histidine in the solution. The obtained solution was adjusted to pH 6.0 with a sodium hydroxide aqueous solution. The obtained injection solution (L-histidine concentration: 10% (W/V)) was administered into the caudal vein of each rat at a rate of 60 mL/kg/hr for 10 minutes.
as §3, with “citric” for “acetic”
β-alanyl-L-histidine was added to water for injection purpose, and the obtained solution was then adjusted to pH 7 with hydrochloric acid. The obtained injection solution (L-histidine concentration: 10% (W/V)) was administered into the caudal vein of each rat at a rate of 60 mL/kg/hr for 10 minutes. […]
(§4) After administration of the agent, blood was collected from each rat at regular time intervals, and the concentration of L-histidine (monomer) in blood was then measured using a high speed amino acid analyzer L-8800A (manufactured by Hitachi High-Technologies Corporation). […] In addition, the body temperature, blood pressure, and cardiac rate of each test animal were measured during the period from before administration of the agent until after the administration of the agent, and at the same time, the appearance of each test animal was observed, so as to examine the presence or absence of side effects caused by administration of the agent. The L-histidine concentration in blood was measured 15 minutes after the administration of the agent, and the presence or absence of side effects caused by such administration of the agent was examined.

[3] = L-histidine concentration in blood after intravenous administration (Test Example 2)
Experimental: as §2
The therapeutic agent for cerebral ischemic injury obtained in Production Example 2 was diluted by a factor of 2, and the thus diluted solution was administered into the caudal vein of each rat at a rate of 60 mL/kg/hr for 10 minutes. […]
as §3
as §3, with “citric” for “acetic”, “minutes. […]” for “minutes.”
as §4

[4] = Solubility in water at 25° C.; type: physicochemical
[5] = male, Wistar, rat, in vivo, 0 min
[6] = male, Wistar, rat, in vivo, 15 min
[7] = male, Wistar, rat, in vivo, 30 min
[8] = male, Wistar, rat, in vivo, 60 min
[9] = male, Wistar, rat, in vivo, 120 min
[10] = male, Wistar, rat, in vivo, -10 min
[11] = 5th administration group: dissolved with acetic acid, pH 6.0, L-histidine 10% (W/V), caudal vein 60 mL/kg/hr for 10 minutes
[12] = 6th administration group: dissolved with citric acid, pH 6.0, L-histidine 10% (W/V), caudal vein 60 mL/kg/hr for 10 minutes

Structure (SMILES): CC1=NN(c2ccccc2)C(=O)C1 [Edaravone, 3-methyl-1-phenyl-2-pyrazoline-5-one]
Infarction rate (mean value) ([1]; Comparison group: bolus injection 3 mg/kg immediately after and 30 minutes after reperfusion): 38%

Structure (SMILES): C[C@H](N)C(=O)N[C@@H](Cc1c[nH]cn1)C(=O)O [L-alanyl-L-histidine] (H-Ala-His-OH)
L-histidine concentration in blood [2, 5]: 7588.27 nmol/mL
L-histidine concentration in blood immediately after completion of administration, relative to second administration group (L-histidyl-L-glycine) [2, 5]: approximately 2 times
L-histidine concentration in blood immediately after completion of administration, relative to third administration group (L-histidyl-L-glutamic acid) [2, 5]: approximately 5 times
L-histidine concentration in blood [2, 6]: 3802.80 nmol/mL
L-histidine concentration in blood [2, 7]: 2198.93 nmol/mL
L-histidine concentration in blood [2, 8]: 770.17 nmol/mL
L-histidine concentration in blood [2, 9]: 268.77 nmol/mL
L-histidine concentration in blood [2, 10]: 76.67 nmol/mL
Side effects (Wistar male rats; rat, in vivo): None
Factor of increase of L-histidine concentration in blood when the concentration administered was increased by a factor of 2 [3, 6]: 3-3.5
Cerebral ischemic injury during cerebral ischemia-reperfusion compared with control group and comparison group ([1]; Experiment group, Production Example 1 injection): remarkably suppressed
Infarction rate (mean value) ([1]; Experiment group: Production Example 1 injection (1.29 mol/L), caudal vein 60 mL/kg/hr for 10 minutes, immediately after and 6 hours after reperfusion): 20%
solubility [4]: ≥ 3500 mM

Structure (SMILES): Cl.N[C@@H](Cc1c[nH]cn1)C(=O)O [L-histidine hydrochloride]
Side effects (Wistar male rats; 4th (pH 6.0) / 7th (pH 7) administration group: L-histidine concentration 10% (W/V), caudal vein 60 mL/kg/hr for 10 minutes, hydrochloride): Decrease in blood pressure; also recorded: Cessation of breathing
Cessation of breathing, number of cases (Wistar male rats; 4th group: during administration of agent, 7th group: immediately after administration, L-histidine 10% (W/V)): agent in 2 cases

L-histidine concentration in blood (mean value) [3, 11]: Not be measurable
L-histidine concentration in blood (mean value) [3, 12]: Not be measurable
Structure (SMILES): N[C@@H](Cc1c[nH]cn1)C(=O)O [L-histidine]
Side effects (Wistar male rats; [11]): Decrease in blood pressure; also recorded: Cessation of breathing
Cessation of breathing, number of cases (Wistar male rats; 5th group (acetic acid, pH 6.0, 10% (W/V)): immediately after administration of agent): administration of agent in 4 cases
Side effects (Wistar male rats; [12]): Decrease in blood pressure; also recorded: Cessation of breathing
Cessation of breathing, number of cases (Wistar male rats; 6th group (citric acid, pH 6.0, 10% (W/V)): during administration of agent): agent in 4 cases

L-histidine concentration in blood [2, 5]: 1546.15 nmol/mL
L-histidine concentration in blood [2, 6]: 2090.10 nmol/mL
L-histidine concentration in blood [2, 7]: 1827.15 nmol/mL
L-histidine concentration in blood [2, 8]: 926.80 nmol/mL
L-histidine concentration in blood [2, 9]: 233.20 nmol/mL
L-histidine concentration in blood [2, 10]: 78.40 nmol/mL
Structure (SMILES): N[C@@H](Cc1c[nH]cn1)C(=O)N[C@@H](CCC(=O)O)C(=O)O [L-histidyl-L-glutamic acid] (H-His-Glu-OH)

L-histidine concentration in blood ([2]; 0 min after administration, 0.32 mol/L, caudal vein 60 mL/kg/hr for 10 minutes): 3995.57 nmol/mL
L-histidine concentration in blood ([2]; 15 min after administration, 0.32 mol/L, caudal vein 60 mL/kg/hr for 10 minutes): 3798.87 nmol/mL
L-histidine concentration in blood ([2]; 30 min after administration, 0.32 mol/L, caudal vein 60 mL/kg/hr for 10 minutes): 2019.47 nmol/mL
L-histidine concentration in blood ([2]; 60 min after administration, 0.32 mol/L, caudal vein 60 mL/kg/hr for 10 minutes): 833.93 nmol/mL
L-histidine concentration in blood ([2]; 120 min after administration, 0.32 mol/L, caudal vein 60 mL/kg/hr for 10 minutes): 244.03 nmol/mL
L-histidine concentration in blood ([2]; −10 min (before administration), 0.32 mol/L, caudal vein 60 mL/kg/hr for 10 minutes): 74.73 nmol/mL
Structure (SMILES): N[C@@H](Cc1cnc[nH]1)C(=O)NCC(=O)O [L-histidyl-L-glycine] (H-His-Gly-OH)

L-histidine concentration in blood (mean value) ([3]; male, Wistar, rat, in vivo, 15 min, pH 7): 0.25 mM
Structure (SMILES): CC(=O)N[C@@H](Cc1c[nH]cn1)C(=O)O [N-acetyl-L-histidine]
Side effects (Wistar male rats; rat, in vivo, pH 7): None

L-histidine concentration in blood (mean value) [3, 6]: 0.30 mM
Structure (SMILES): NCCC(=O)N[C@@H](Cc1cnc[nH]1)C(=O)O [β-alanyl-L-histidine]
Side effects (Wistar male rats; rat, in vivo): Cessation of breathing
